Reference: paper PMC5766630, “Non-estrogenic Xanthohumol Derivatives Mitigate Insulin Resistance and Cognitive Impairment in High-Fat Diet-induced Obese Mice” (Scientific Reports, 2018)

Assays:
[1] = system: skeletal muscle AMPK (pAMPKα/total AMPKα); assay: AMPK activation in skeletal muscle by Western blot; type: in vivo, mouse; conditions: HFD mice, 30 mg/kg/day, 13 weeks, vs control
Procedure: Approximately 150 mg of frozen liver and muscle tissues were homogenized in tubes containing RIPA buffer with protease and phosphatase inhibitors plus ceramic beads (1.4 mm Ceramic, Bulk Beads, Fisher Scientific, Pittsburgh, PA, USA) using a Precellys 24 (PEQLAB Biotechnology GmbH, Germany). Liver tissue was homogenized for 1 × 30 sec at 6,500 rpm whereas muscle was homogenized for 3 × 30 sec at 6,500 rpm with 20 sec intervals. The homogenates were centrifuged at 15,700 × g for 10 minutes and aliquots (50 µg of protein) of the supernatant (lysate) were separated by SDS-PAGE using 4–15% MP TGX Gels (Bio-Rad # 4561083) and blotted onto nitrocellulose membranes. Membranes were blocked with 5% nonfat milk for 2 h and incubated with antibodies against pAMPK (Phospho-AMPKα (Thr172) Antibody, cat. no. #2531 Cell Signaling Technology, Danvers, MA, USA), AMPK (AMPKα Antibody, cat. no. #2532 Cell Signaling Technology, Danvers, MA, USA), or β-actin (Santa Cruz Biotechnology) for 1 h or overnight. After a second reaction with secondary antibodies (horseradish peroxidase-conjugated IgG goat antirabbit or goat antimouse antibodies), the protein bands on the nitrocellulose membranes were visualized by enhanced chemiluminescence substrate on a Biorad ChemiDocTM MP Imaging System (BioRad Laboratories Inc, Hercules, CA, USA). Band intensities were quantified by densitometry using Image J software.

[2] = system: progesterone receptor (PGR) expression in MCF-7 cells; assay: Progesterone receptor (PGR) gene expression in MCF-7 cells, real-time PCR; type: cell-based, human; conditions: 20 h; estradiol 1 and 10 nM; 8-PN, XN, DXN, TXN 0.2, 1 and 5 μM; vs 0.1% ethanol
Procedure: MCF-7 cells (American Type Culture Collection, Manassas, VA, USA) were cultured in DMEM (Corning Life Sciences, Tewksbury, MA, USA) supplemented with 10% fetal bovine serum (Corning Life Sciences) and 100 μg/ml penicillin/streptomycin (Invitrogen, Carlsbad, CA, USA). For estrogen-free experiments, cells were seeded in phenol-free DMEM (Gibco/Life Technologies, Grand Island, NY, USA) plus 10% charcoal-dextran-treated FBS (Corning Life Sciences) at 5 × 10^5 cells/well of a 6-well plate. […] Total RNA was isolated using TRIzol (Invitrogen) and converted into cDNA using iScript (Bio-Rad, Hercules, CA, USA). Real-time PCR was performed in triplicate on a CFX-96 (Bio-Rad) using primer-probe assays (IDT Technologies, Coralville, IA, USA) and SsoAdvanced Universal Probes Supermix (Bio-Rad) to quantify progesterone receptor (PGR) and GAPDH levels. The ratio of PGR to GAPDH was calculated as 2^−ΔCt PGR/2^−ΔCt GAPDH. Data were analyzed using a one-way ANOVA (p < 0.05 was considered statistically significant) and a post-hoc Tukey’s multiple comparison test. Induction of the progesterone receptor in MCF-7 cells is one of the indices of estrogenicity of flavonoids such as 8-PN[94].

[3] = system: C57BL/6J mice fed a high-fat diet; assay: 13-week HFD feeding study: body weight, food intake, liver weight, metabolic parameters; type: in vivo, mouse; conditions: 13 weeks; for Body weight gain / HOMA-IR / Fasting plasma glucose / Feed efficiency / Food intake / Liver weight / Plasma cholesterol / Plasma insulin / Plasma leptin / Plasma triglycerides: male C57BL/6J mice, HFD, mean ± SE; for Body weight gain: 30 mg/kg body weight/day in diet; for Body weight gain / Fasting plasma glucose / Feed efficiency / Food intake / Liver weight / Plasma cholesterol / Plasma insulin / Plasma leptin / Plasma triglycerides: n = 11–12; for HOMA-IR / Fasting plasma glucose / Feed efficiency / Food intake / Liver weight / Plasma cholesterol / Plasma insulin / Plasma leptin / Plasma triglycerides: 30 mg/kg/day in diet; for HOMA-IR: insulin (mU/L) × glucose (mmol/L)/22.5
Excerpt: Nine-week old male C57BL/6J mice, obtained from The Jackson Laboratory (Bar Harbor, ME, USA), were housed individually in plastic cages under a 12–12-hr light-dark cycle. They were assigned randomly to four groups consisting of 12 mice each. One group (control) was fed a HFD (Dyets Inc., Bethlehem, PA, USA) containing 60%, 20% and 20% total calories from fat, carbohydrate and protein, respectively, and the other three groups were fed the HFD containing XN, DXN, or TXN. The test compounds were dissolved in an isotropic mixture of oleic acid:propylene glycol:Tween 80, 0.9:1:1 by weight (OPT) before incorporation into the HFD. The control diet contained an identical amount of OPT. All diets were prepared in pellet form by Dyets, Inc. (Bethlehem, PA, USA). The mouse diets were formulated to deliver a dose of 30 mg test compound per kg body weight per day. Food intake was measured three times per week and body weights were recorded weekly. At the end of 13 weeks of feeding, the mice were euthanized and blood, liver and skeletal muscle were collected for analyses. All animal protocols were approved by Institutional Animal Care and Use Committee (IACUC) at Oregon State University. Animal experiments were carried out in accordance with the relevant guidelines and regulations.
Plasma triglycerides and total cholesterol were analyzed with commercially available kits (Fisher-Scientific, Pittsburgh, PA, USA). Plasma glucose was analyzed by a test kit obtained from Wako Diagnostics (Mountain View, CA, USA). Plasma insulin and leptin were analyzed by ELISA kits purchased from Alpco Diagnostics (Salem, NH, USA) and Crystal Chem (Downers Grove, IL, USA), respectively. Homeostasis Model Assessment of Insulin Resistance (HOMA-IR) was calculated as follows: fasting plasma insulin concentration (mU/L) × fasting plasma glucose level (mmol/L)/22.5[95]. Plasma levels of AST and ALT were measured using commercially-available kits (Bioo Scientific Corp., Austin, TX, USA) as indicators of in vivo liver toxicity.
(§1) Body weight, food intake, and metabolic measurements: data were analyzed using a one-way ANOVA in PROC GLM for single measures within animals (i.e., liver, plasma, and muscle metabolic measures) and a repeated-measures-in-time design ANOVA in PROC MIXED for repeated measures within animals (i.e., body weight, feed intake, and feed efficiency). The area-under-the-curve (AUC) for the glucose tolerance tests were calculated using the trapezoidal rule. Before statistical analysis, data were examined for variance homogeneity and normality. To achieve normality, liver, plasma, and muscle XN data and plasma insulin data were natural log-transformed. For statistical comparisons, the control group was compared with each XN metabolite group.

[4] = system: C57BL/6J mice fed a high-fat diet; assay: Glucose tolerance test; type: in vivo, mouse; conditions: 30 mg/kg/day, 6 h fast, glucose 2 g/kg i.p., n = 5; for Glucose tolerance test AUC, decrease compared with control, 4 weeks: 4 weeks of feeding; for Glucose tolerance test AUC, decrease compared with control, 11 weeks: 11 weeks of feeding
Procedure: Glucose tolerance tests were conducted after 4 and 11 weeks of feeding the experimental diets. Five mice from each treatment group were used in each glucose tolerance assay. Mice were fasted for 6 h prior to baseline blood glucose testing. Blood was collected from the mice by tail puncture, and glucose measurements were taken using a One Touch UltraMini glucometer (LifeScan, Inc., Milpitas, CA, USA). Mice were weighed and then given an i.p. injection of glucose equal to 2 g/kg body weight. Glucose readings were taken at 0 minutes (prior to glucose injection), and at 15 min, 30 min, 1 h, and 2 h after glucose injection.
as §1

COc1cc(O)c(CC=C(C)C)c(O)c1C(=O)/C=C/c1ccc(O)cc1 [XN, 3′-[3,3-dimethylallyl]-2′,4′,4-trihydroxy-6′-methoxychalcone]
Decrease of skeletal muscle AMPK activation (pAMPK/AMPK) [1]: 19% | induction of PGR expression [2]: do not induce | Body weight gain [3]: 16.1 ± 1.3 g | HOMA-IR [3]: 31.3 ± 1.7 | Fasting plasma glucose [3]: 169 ± 8.3 mg/dL | Feed efficiency [3]: 0.068 ± 0.006 g weight gain/g food intake | Food intake [3]: 2.59 ± 0.09 g/day | Liver weight [3]: 1.14 ± 0.07 g | Plasma cholesterol [3]: 196 ± 8.5 mg/dL | Plasma insulin [3]: 2.61 ± 0.65 ng/mL | Plasma leptin [3]: 10.6 ± 1.00 ng/mL | Plasma triglycerides [3]: 80.6 ± 4.2 mg/dL | Glucose tolerance test AUC, decrease compared with control, 4 weeks [4]: 43% | Glucose tolerance test AUC, decrease compared with control, 11 weeks [4]: 12%

COc1cc(O)c(CC=C(C)C)c(O)c1C(=O)CCc1ccc(O)cc1 [DXN, α,β-Dihydroxanthohumol]
Decrease of skeletal muscle AMPK activation (pAMPK/AMPK) [1]: 22% | induction of PGR expression [2]: do not induce | Plasma leptin concentration, change compared with controls ([3]; HFD mice, 30 mg/kg/day): −26% | Body weight gain [3]: 15.1 ± 1.3 g | HOMA-IR [3]: 22.0 ± 5.2 | Fasting plasma glucose [3]: 150 ± 13.0 mg/dL | Feed efficiency [3]: 0.062 ± 0.006 g weight gain/g food intake | Food intake [3]: 2.66 ± 0.09 g/day | Liver weight [3]: 1.11 ± 0.07 g | Plasma cholesterol [3]: 167 ± 8.5 mg/dL | Plasma insulin [3]: 2.08 ± 0.69 ng/mL | Plasma leptin [3]: 8.48 ± 1.00 ng/mL | Plasma triglycerides [3]: 84.4 ± 4.9 mg/dL | Glucose tolerance test AUC, decrease compared with control, 4 weeks [4]: 46% | Glucose tolerance test AUC, decrease compared with control, 11 weeks [4]: 35%

COc1cc(O)c(CCC(C)C)c(O)c1C(=O)CCc1ccc(O)cc1 [TXN, tetrahydroxanthohumol]
Decrease of skeletal muscle AMPK activation (pAMPK/AMPK) [1]: 25% | induction of PGR expression [2]: do not induce | HOMA-IR index as % of control mice ([3]; HFD mice, 30 mg/kg/day): 13 % of control mice | Liver weight, change compared with controls ([3]; HFD mice, 30 mg/kg/day): −21% | Plasma insulin, change compared with controls ([3]; HFD mice, 30 mg/kg/day): −82% | Plasma leptin concentration, change compared with controls ([3]; HFD mice, 30 mg/kg/day): −44% | Body weight gain [3]: 9.70 ± 1.4 g | HOMA-IR [3]: 4.10 ± 0.3 | Fasting plasma glucose [3]: 118 ± 7.2 mg/dL | Feed efficiency [3]: 0.042 ± 0.006 g weight gain/g food intake | Food intake [3]: 2.51 ± 0.09 g/day | Liver weight [3]: 0.93 ± 0.07 g | Plasma cholesterol [3]: 167 ± 8.9 mg/dL | Plasma insulin [3]: 0.49 ± 0.08 ng/mL | Plasma leptin [3]: 6.39 ± 1.04 ng/mL | Plasma triglycerides [3]: 79.3 ± 7.8 mg/dL | Glucose tolerance test AUC, decrease compared with control, 4 weeks [4]: 61% | Glucose tolerance test AUC, decrease compared with control, 11 weeks [4]: 45%
